Source: patent publication US20080064040A1, “Monitoring gene silencing and annotating gene function in living cells” (Odyssey Thera, Inc., priority 2003, published 2008)

Test system: phosphorylation of the ERK1 and ERK2 protein kinases
Test: Phospho-ERK (T202/Tyr204) immunofluorescence in EGF-treated HEK 293T cells
Type: cell-based, human
Conditions: EGF vs unstimulated cells, FIG. 11B
Experimental: Cells are transfected with a collection of siRNAs, and cultured for 48 hours before fixing. Fixed cells are probed with antibodies that specifically recognize the MAPK/ERK protein kinases only when they are phosphorylated on Threonine 202 and Tyrosine 204 in the activation loop. […] Changes in the level and sub-cellular localization of phosphorylated proteins following treatment with an annotation reagent (here siRNA) indicates a functional connection between the annotation reagent and the target of interest. […] Here, 24 individual siRNA pools were transfected into human HEK cells, and their effects on the phosphorylation of the ERK1 and ERK2 protein kinases was assessed by immunofluorescence analysis.
Human HEK 293T cells were plated at 12,000 cells/well, and transfected with 40 ng of siRNA pools targeting the indicated proteins using Lipofectamine 2000 (Invitrogen, Carlsbad Calif.). 24 hours after transfection, cells were cultured in 0.25% serum for 24 hours, then treated with EGF (Sigma; 100 ng/ml) for 5 minutes prior to fixation. For immunofluorescence, cells were rinsed with PBS, fixed with 4% formaldehyde in PBS, and permeabilized using 0.25% Triton X-100. Non-specific immunoreactivity was blocked by incubating cells with 3% BSA in PBS. […] Automated fluorescence image acquisition was carried out using Discovery-1 (Universal Imaging/Molecular Devices).

“EGF: epidermal growth factor (Sigma), stimulus for ERK phosphorylation (NSDSECPLSHDGYCLHDGVCMYIEALDKYACNCVVGYIGERCQYRDLKWWELR; UniProt P01133 971-1023, looked up)” was tested, and the “level of phosphorylated ERK after growth factor treatment” value was “large increase in phosphorylated ERK”.
